Data on one molecule can be found in publication PMC4503959, “Dopamine modulates hemocyte phagocytosis via a D1-like receptor in the rice stem borer, Chilo suppressalis” (Scientific Reports, 2015).

Usually EC50 stands for the concentration giving half of the maximal effect. A high value points to weaker potency.

For this experiment, the target named is T1, CsDOP1 (Chilo suppressalis, UniProt A0A0K0QVU3).
T1 construct: gene DOP1; receptor in pcDNA3, stably expressed in HEK 293 cells; GPCR coupled to Gs (cAMP increase)
T1 sequence (A0A0K0QVU3 1-409): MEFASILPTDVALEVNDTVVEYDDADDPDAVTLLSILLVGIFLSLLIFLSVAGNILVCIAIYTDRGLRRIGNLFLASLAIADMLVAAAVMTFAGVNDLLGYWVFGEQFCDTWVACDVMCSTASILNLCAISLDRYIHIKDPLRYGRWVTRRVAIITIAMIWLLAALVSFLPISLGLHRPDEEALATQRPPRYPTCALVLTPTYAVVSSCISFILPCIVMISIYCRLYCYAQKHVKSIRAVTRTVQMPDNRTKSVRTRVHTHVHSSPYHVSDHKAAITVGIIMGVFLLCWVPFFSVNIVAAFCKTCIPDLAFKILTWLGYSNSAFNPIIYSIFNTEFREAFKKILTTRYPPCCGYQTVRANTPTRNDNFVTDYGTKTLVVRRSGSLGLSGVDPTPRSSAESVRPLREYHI
The experiment can be described thus: intracellular cAMP accumulation. The format is cell-based. In general terms: Changes in cAMP serve as a functional read-out for many G protein-coupled receptors.

The structures appear in SMILES notation.

Molecule `NCCc1ccc(O)c(O)c1` [dopamine] gave an EC50 of 1.93 nM.
